Legend:
[1] = tested on: Rattus norvegicus; assay: Dose producing 30% decrease of blood pressure in anesthetized rats (SHR); assay type: functional
[2] = tested on: Rattus norvegicus; assay: Dose producing 10% decrease of heart rate in anesthetized rats (SHR); assay type: functional
[3] = biological target: T1, Adenosine A2 receptor (Rattus norvegicus, UniProt P29276+P30543)
Description: Binding affinity against adenosine A2 receptor in rat striatal membranes using [3H]NECA as radioligand

[4] = biological target: T2, Adenosine receptor A1 (Rattus norvegicus, UniProt P25099)
T2 sequence (P25099 whole entry): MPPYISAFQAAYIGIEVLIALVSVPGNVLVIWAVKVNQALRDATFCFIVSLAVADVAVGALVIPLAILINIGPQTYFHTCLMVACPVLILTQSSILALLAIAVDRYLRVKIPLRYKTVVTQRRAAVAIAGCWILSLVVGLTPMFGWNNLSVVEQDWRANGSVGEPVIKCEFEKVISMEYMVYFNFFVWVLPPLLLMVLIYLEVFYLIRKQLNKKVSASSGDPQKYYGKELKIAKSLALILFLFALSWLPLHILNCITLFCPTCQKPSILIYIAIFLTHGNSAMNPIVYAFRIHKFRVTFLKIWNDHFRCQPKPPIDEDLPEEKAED
Description: Binding affinity against adenosine A1 receptor in rat brain membranes using [3H]CHA as radioligand

[5] = biological target: T2, Adenosine receptor A1; assay: Binding affinity against adenosine A1 receptor in rat brain membranes using [3H]-CHA; assay type: cell membranes
[6] = biological target: T1, Adenosine A2 receptor; assay: Binding affinity against adenosine A2 receptor in rat striatal membranes using [3H]NECA; assay type: cell membranes, Striatum, Membrane

SMILES: CCNC(=O)[C@H]1O[C@@H](n2cnc3c(N)nc(NCCc4ccc(CCC(=O)O)cc4)nc32)[C@H](O)[C@@H]1O [CGS-21680]
- ED30 [1]: 0.83 µg/kg
- ED10 [2]: > 100 µg/kg

SMILES: CCCCCCCC#Cc1nc(N)c2ncn([C@@H]3O[C@H](CO)[C@@H](O)[C@H]3O)c2n1
- Ki [3]: 0.0337 µM
- ED30 [1]: 0.53 µg/kg
- Ki [4]: 0.257 µM
- ED10 [2]: > 100 µg/kg

SMILES: COCC#Cc1nc(N)c2ncn([C@@H]3O[C@H](CO)[C@@H](O)[C@H]3O)c2n1
- Ki [3]: 0.0881 µM
- ED30 [1]: 23.8 µg/kg
- Ki [4]: 0.0381 µM
- ED10 [2]: 44.2 µg/kg

SMILES: C[Si](C)(C)C#Cc1nc(N)c2ncn([C@@H]3O[C@H](CO)[C@@H](O)[C@H]3O)c2n1
- Ki [3]: 0.63 µM
- ED30 [1]: 1.15 µg/kg
- Ki [4]: 0.0698 µM
- ED10 [2]: > 100 µg/kg

SMILES: Nc1nc(C#CCO)nc2c1ncn2[C@@H]1O[C@H](CO)[C@@H](O)[C@H]1O
- Ki [3]: 0.0205 µM
- ED30 [1]: 0.95 µg/kg
- Ki [4]: 0.0101 µM
- ED10 [2]: 1.19 µg/kg

SMILES: CCCC#Cc1nc(N)c2ncn([C@@H]3O[C@H](CO)[C@@H](O)[C@H]3O)c2n1
- Ki [3]: 0.0075 µM
- ED30 [1]: 0.18 µg/kg
- Ki [4]: 0.154 µM
- ED10 [2]: 41.5 µg/kg

SMILES: CCCCCC#Cc1nc(N)c2ncn([C@@H]3O[C@H](CO)[C@@H](O)[C@H]3O)c2n1
- Ki [3]: 0.0054 µM
- ED30 [1]: 0.14 µg/kg
- Ki [4]: 0.17 µM
- ED10 [2]: > 100 µg/kg

SMILES: CCNC(=O)[C@H]1O[C@@H](n2cnc3c(N)ncnc32)[C@H](O)[C@@H]1O [NECA]
- ED30 [1]: 0.19 µg/kg
- ED10 [2]: 0.35 µg/kg

SMILES: OC[C@H]1O[C@@H](n2cnc3c(NC4CCCC4)ncnc32)[C@H](O)[C@@H]1O [N6-CYCLOPENTYLADENOSINE]
- Ki [3]: 0.421 µM
- ED30 [1]: 0.5 µg/kg
- ED10 [2]: 0.14 µg/kg

SMILES: CCC#Cc1nc(N)c2ncn([C@@H]3O[C@H](CO)[C@@H](O)[C@H]3O)c2n1
- Ki [3]: 0.0212 µM
- ED30 [1]: 0.48 µg/kg
- Ki [4]: 0.186 µM
- ED10 [2]: 18.4 µg/kg

SMILES: CCCCCCCCC#Cc1nc(N)c2ncn([C@@H]3O[C@H](CO)[C@@H](O)[C@H]3O)c2n1
- Ki [3]: 0.0328 µM
- ED30 [1]: 0.46 µg/kg
- Ki [4]: 0.232 µM
- ED10 [2]: > 100 µg/kg

SMILES: CCCCCCC#Cc1nc(O)c2ncn(C3O[C@H](CO)[C@@H](O)[C@H]3O)c2n1 (some centres not stated)
- Ki [3]: > 0.567 µM
- ED30 [1]: > 100 µg/kg
- Ki [4]: > 0.567 µM
- ED10 [2]: > 100 µg/kg

SMILES: CCCCC#Cc1nc(N)c2ncn([C@@H]3O[C@H](CO)[C@@H](O)[C@H]3O)c2n1
- ED30 [1]: 0.11 µg/kg
- Ki [4]: 0.126 µM
- ED10 [2]: 66.9 µg/kg

SMILES: COc1cc(OC)cc(C(CNc2ncnc3c2ncn3[C@@H]2O[C@H](CO)[C@@H](O)[C@H]2O)c2ccccc2C)c1 (some centres not stated)
- ED30 [1]: 12.1 µg/kg
- Ki [4]: 0.103 µM
- ED10 [2]: > 100 µg/kg

SMILES: CCCCCCCCc1nc(N)c2ncn(C3O[C@H](CO)[C@@H](O)[C@H]3O)c2n1 (some centres not stated)
- Ki [3]: > 0.567 µM
- ED30 [1]: > 100 µg/kg
- Ki [4]: > 0.567 µM
- ED10 [2]: > 100 µg/kg

SMILES: CCCCCCC#Cc1nc2c(N)ncnc2n1C1O[C@H](CO)[C@@H](O)[C@H]1O (some centres not stated)
- Ki [3]: > 0.567 µM
- ED30 [1]: > 100 µg/kg
- Ki [4]: > 0.567 µM
- ED10 [2]: > 100 µg/kg

SMILES: CCc1nc(N)c2ncn(C3O[C@H](CO)[C@@H](O)[C@H]3O)c2n1 (some centres not stated)
- Ki [3]: > 0.567 µM
- ED30 [1]: > 100 µg/kg
- Ki [4]: > 0.567 µM
- ED10 [2]: > 100 µg/kg

SMILES: CC(=O)c1nc(N)c2ncn(C3O[C@H](CO)[C@@H](O)[C@H]3O)c2n1 (some centres not stated)
- Ki [3]: > 0.567 µM
- ED30 [1]: 46.7 µg/kg
- Ki [4]: > 0.567 µM
- ED10 [2]: 50.3 µg/kg

SMILES: Nc1nc(Nc2ccccc2)nc2c1ncn2[C@@H]1O[C@H](CO)[C@@H](O)[C@H]1O
- Ki [3]: 0.107 µM
- ED30 [1]: 5.82 µg/kg
- ED10 [2]: > 100 µg/kg

SMILES: CCCCCCC#Cc1nc(N)c2[nH]cnc2n1
- Ki [3]: > 0.567 µM
- ED30 [1]: > 100 µg/kg
- Ki [4]: > 0.567 µM
- ED10 [2]: > 100 µg/kg

SMILES: CCCOCCC#Cc1nc(N)c2ncn(C3O[C@H](CO)[C@@H](O)[C@H]3O)c2n1 (some centres not stated)
- Ki [3]: 0.0102 µM
- ED30 [1]: 1.1 µg/kg
- Ki [4]: 0.128 µM
- ED10 [2]: 79.9 µg/kg

SMILES: CCCCCCC#Cc1nc(N)c2ncn([C@@H]3O[C@H](CO)[C@@H](O)[C@H]3O)c2n1
- Ki [3]: 0.0121 µM
- ED30 [1]: 0.34 µg/kg
- Ki [4]: 0.202 µM
- ED10 [2]: > 100 µg/kg

SMILES: CCCCOCC#Cc1nc(N)c2ncn([C@@H]3O[C@H](CO)[C@@H](O)[C@H]3O)c2n1
- Ki [3]: 0.0106 µM
- ED30 [1]: 1.06 µg/kg
- Ki [4]: 0.0185 µM
- ED10 [2]: 9.59 µg/kg

SMILES: C#Cc1nc(N)c2ncn(C3O[C@H](CO)[C@@H](O)[C@H]3O)c2n1 (some centres not stated)
- Ki [3]: 0.0376 µM
- ED30 [1]: 5.91 µg/kg
- Ki [4]: 0.272 µM
- ED10 [2]: 5.76 µg/kg

SMILES: CCOCCCC#Cc1nc(N)c2ncn([C@@H]3O[C@H](CO)[C@@H](O)[C@H]3O)c2n1
- Ki [3]: 0.0128 µM
- ED30 [1]: 1.42 µg/kg
- Ki [4]: 0.244 µM
- ED10 [2]: > 100 µg/kg

SMILES: CCCCCC/C=C\c1nc(N)c2ncn(C3O[C@H](CO)[C@@H](O)[C@H]3O)c2n1 (some centres not stated)
- Ki [3]: 0.15 µM
- ED30 [1]: 5 µg/kg
- Ki [4]: > 0.567 µM
- ED10 [2]: > 100 µg/kg

SMILES: CCCCCCCCCCC#Cc1nc(N)c2ncn(C3O[C@H](CO)[C@@H](O)[C@H]3O)c2n1 (some centres not stated)
- ED30 [1]: 2.05 µg/kg
- Ki [5]: 0.267 µM
- Ki [6]: 0.0446 µM
- ED10 [2]: > 100 µg/kg

SMILES: CCCCCCC#Cc1ncnc2c1ncn2C1O[C@H](CO)[C@@H](O)[C@H]1O (some centres not stated)
- Ki [3]: > 0.567 µM
- ED30 [1]: > 100 µg/kg
- Ki [4]: > 0.567 µM
- ED10 [2]: > 100 µg/kg

SMILES: CCCCCCCCOCCC#Cc1nc(N)c2ncn([C@@H]3O[C@H](CO)[C@@H](O)[C@H]3O)c2n1
- Ki [3]: 0.307 µM
- ED30 [1]: 9.16 µg/kg
- Ki [4]: 1.5 µM
- ED10 [2]: > 100 µg/kg

SMILES: Nc1nc(C#CCCO)nc2c1ncn2[C@@H]1O[C@H](CO)[C@@H](O)[C@H]1O
- Ki [3]: 0.0401 µM
- ED30 [1]: 2.53 µg/kg
- Ki [4]: 0.0814 µM
- ED10 [2]: 15.3 µg/kg
